# Experimental data taken from patent US9809562B2, “NAT10 modulators for treating or preventing laminopathies, aging and cancer” (CAMBRIDGE ENTERPRISE LIMITED, priority 2014, dated 2017).
# Where a name gives a salt, the structure may show the parent alone.
# Assays:
# [1] = test system: LMNA knock out (KO) U2OS cell line; experiment: Cell growth of LMNA KO versus LMNA WT U2OS cells (IncuCyte ZOOM); type: cell-based, human; details: U2OS, CripR/Cas9 LMNA KO
# Text: LMNA knock out (KO) U2OS cell line was engineered using CripR/Cas9 technology. The sensitivity of LMNA KO cells to Compound 2 was compared to cells expressing wild type LMNA (LMNA WT). Cell growth was monitored automatically over time using an IncuCyte ZOOM®. The results are shown in FIG. 21 which has been split into two graphs for easier reading of the curves.
# [2] = test system: tissues from Lmna^G609G/G609G mice; experiment: γH2AX relative to total H2AX in mouse tissues (western blot); type: in vivo
# Description: Tissues from wild type mice or Lmna^G609G/G609G mice treated with Compound 2 were harvested and proteins were extracted and loaded on a western blot which is shown in FIG. 26. Lmna^G609G/G609G mice indeed show progerin expression (readily detectable mainly in the Lung tissues), confirming their genotype. DNA damage was assessed by the DNA double strand break marker γH2AX that was quantified using a Licor Odyssey Imaging system.
# [3] = biological target: T1, NAT10 purified from HEK293 cells (Homo sapiens, UniProt Q9H0A0); experiment: Lysine acetyltransferase (KAT) assay with tubulin substrate; type: biochemical; details: compounds at 50 μM
# T1 construct: made in house; host or cells: HEK293 (transient transfection, anti-FLAG immunopurification, elution with triple-Flag peptide)
# T1 sequence (Q9H0A0 1-1025): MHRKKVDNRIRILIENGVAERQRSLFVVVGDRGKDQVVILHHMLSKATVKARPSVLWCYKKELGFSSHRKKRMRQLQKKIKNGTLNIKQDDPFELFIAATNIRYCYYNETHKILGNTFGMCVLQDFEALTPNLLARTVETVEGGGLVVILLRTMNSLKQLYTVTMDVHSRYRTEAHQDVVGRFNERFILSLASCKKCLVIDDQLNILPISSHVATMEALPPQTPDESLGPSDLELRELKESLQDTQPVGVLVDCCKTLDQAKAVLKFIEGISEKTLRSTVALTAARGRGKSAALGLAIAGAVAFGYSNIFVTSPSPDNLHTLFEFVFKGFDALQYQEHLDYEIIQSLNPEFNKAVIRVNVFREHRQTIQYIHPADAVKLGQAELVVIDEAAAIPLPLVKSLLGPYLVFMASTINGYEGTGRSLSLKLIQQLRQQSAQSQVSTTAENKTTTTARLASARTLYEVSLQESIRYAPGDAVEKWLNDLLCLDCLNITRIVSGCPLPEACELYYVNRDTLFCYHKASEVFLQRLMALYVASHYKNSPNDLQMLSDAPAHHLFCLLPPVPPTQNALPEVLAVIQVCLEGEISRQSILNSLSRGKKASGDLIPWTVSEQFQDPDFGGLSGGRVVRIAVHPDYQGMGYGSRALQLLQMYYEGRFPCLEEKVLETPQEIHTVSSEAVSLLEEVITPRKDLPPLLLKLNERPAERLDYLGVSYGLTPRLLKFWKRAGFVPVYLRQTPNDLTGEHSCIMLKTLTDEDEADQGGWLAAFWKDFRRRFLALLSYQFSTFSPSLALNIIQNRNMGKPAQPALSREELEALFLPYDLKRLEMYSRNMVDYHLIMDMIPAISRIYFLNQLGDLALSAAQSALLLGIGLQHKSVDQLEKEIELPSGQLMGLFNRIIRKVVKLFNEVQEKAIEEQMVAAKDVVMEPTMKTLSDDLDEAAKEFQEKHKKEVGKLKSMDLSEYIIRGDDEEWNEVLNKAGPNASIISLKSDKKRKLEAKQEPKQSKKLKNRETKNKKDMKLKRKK
# Description: HEK293 cells were transiently transfected with NAT10 constructs and harvested after 48 hours in PBS. Cells were lysed for 5 minutes at room temperature in IP lysis buffer (20 mM Tris pH 7.5, 40 mM NaCl, 2 mM MgCl2, 0.5% NP-40) freshly supplemented with 50 U/ml benzonase and EDTA-free protease inhibitor cocktail (Roche). After this initial lysis step, NaCl concentration was adjusted to 450 mM and samples were incubated at 4° C. with rotation. Lysates were clarified by centrifugation (13,200 rpm, 20 minutes at 4° C.), and after recovery NaCl concentration was equilibrated to 150 mM. Lysates were used for immunoprecipitation reaction in IP buffer (25 mM Tris pH 7.5, 150 mM NaCl, 1.5 mM DTT, 10% glycerol, 0.5% NP-40) supplemented with protease inhibitors. Target proteins were captured with anti-FLAG antibody (M2, Sigma-Aldrich) coupled to protein A/G-Dynabeads (Life Sciences). Complexes were washed with IP buffer containing incrementally increasing amounts of NaCl (250 mM, 500 mM, and 1M). Following this, the immuno-complexes were washed in TBS containing gradually decreasing amounts on NaCl (1M, 500 mM, 250 mM, and 150 mM). At this point, elution was carried out using excess triple-Flag peptide (Sigma Aldrich). Eluted proteins were loaded on a gel and the purification was verified by Silver Staining (SilverQuest kit, Life Sciences). […]
# [4] = test system: cells (sub-cellular distribution); experiment: Fluorescent labelling of clickable molecules (sub-cellular distribution); type: cell-based; details: 2 hours pre-incubation, Alexa fluor 488 Azide click
# Description: Cells were pre-incubated with clickable molecules Compound 3 or Reference Compound A (1-Chloro-4-ethynilbenzene, purchased from Sigma-Aldrich) for 2 hours before being fixed and permeabilised as described above. Click reaction was prepared using Invitrogen Click-iT reagents with Alexa fluor 488 Azide and incubated with fixed cells for 1 hour in the dark. In case of co-labelling with another protein, the click reaction was performed before the antibody incubations.
SMILES,cell growth inhibition of LMNA KO versus LMNA WT cells [1],"DNA damage (γH2AX relative to total H2AX) ([2]; heart and lung, treated vs untreated Lmna^G609G/G609G mice)",DNA damage (γH2AX relative to total H2AX) ([2]; liver extracts),NAT10 WT KAT activity towards tubulin [3],sub-cellular distribution of fluorescently labelled molecule [4]
"Clc1ccc(-c2csc(NN=C3CCCC3)n2)cc1 [Compound 2, 4-(4-Chlorophenyl)-2-(2-cyclopentylidenehydrazinyl)thiazole Hydrochloride Salt]",specificity of Compound 2 towards inhibiting cell growth of LMNA KO cells,clear decrease of DNA damage,No effect,–,–
"C#CCN(N=C1CCCC1)c1nc(-c2ccc(Cl)cc2)cs1 [Compound 3, 4-(4-Chlorophenyl)-2-(2-cyclopentylidene-1-(prop-2-yn-1-yl)hydrazinyl)thiazole]",–,–,–,abolished NAT10 WT KAT activity,predominant accumulation of Compound 3 in nucleoli
"N#Cc1ccc(-c2csc(NN=C3CCCC3)n2)cc1 [Compound 1, 4-(4-Cyanophenyl)-2-(2-cyclopentylidenehydrazinyl)thiazole]",–,–,–,abolished NAT10 WT KAT activity,–
